Structures are written as SMILES.

Chain of IDH1 R132H (O75874 whole entry R132H): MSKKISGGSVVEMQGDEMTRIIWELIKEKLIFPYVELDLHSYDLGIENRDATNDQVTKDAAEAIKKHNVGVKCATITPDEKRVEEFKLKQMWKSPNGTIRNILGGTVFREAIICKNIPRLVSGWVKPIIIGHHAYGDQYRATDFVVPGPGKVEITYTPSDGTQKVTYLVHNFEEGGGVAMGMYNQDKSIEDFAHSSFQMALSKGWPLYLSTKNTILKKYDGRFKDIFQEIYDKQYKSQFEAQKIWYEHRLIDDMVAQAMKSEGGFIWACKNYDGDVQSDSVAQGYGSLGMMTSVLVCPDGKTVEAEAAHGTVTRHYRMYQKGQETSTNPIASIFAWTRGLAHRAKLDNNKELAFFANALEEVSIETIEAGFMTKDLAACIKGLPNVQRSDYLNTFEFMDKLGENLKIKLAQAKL

The subject of the first assay is HT1080 cells. Description: Cellular assay for IDH1m inhibitors: inhibition of 2-HG production in HT1080 cells (LC-MS). It is filed as cell-based. The settings on record: Homo sapiens, HT-1080, 48 hours. How it is done:
Cells (e.g., HT1080 or U87MG) are grown in T125 flasks in DMEM containing 10% FBS, 1× penicillin/streptomycin and 500 ug/mL G418. They are harvested by trypsin and seeded into 96 well white bottom plates at a density of 5000 cell/well in 100 ul/well in DMEM with 10% FBS. No cells are plates in columns 1 and 12. Cells are incubated overnight at 37 C in 5% CO2. The next day compounds are made up at 2× concentration and 100 ul are added to each cell well. The final concentration of DMSO is 0.2% and the DMSO control wells are plated in row G. The plates are then placed in the incubator for 48 hours. At 48 hours, 100 ul of media is removed from each well and analyzed by LC-MS for 2-HG concentrations. The cell plate is placed back in the incubator for another 24 hours. At 72 hours post compound addition, 10 mL/plate of Promega Cell Titer Glo reagent is thawed and mixed. The cell plate is removed from the incubator and allowed to equilibrate to room temperature. Then 100 ul of reagent is added to each well of media. The cell plate is then placed on an orbital shaker for 10 minutes and then allowed to sit at room temperature for 20 minutes. The plate is then read for luminescence with an integration time of 500 ms.
For the compound `C#CC(=O)N1CCc2c(C#N)c(-c3ccc(C(=O)OC)cc3F)nc(C3CC3)c2C1` [Compound 495], the IC50 is under 500 nM. The same measure, in the same setting: in the case of `N#CCC(=O)N1CCc2c(C#N)c(N3CCN(C(=O)C4CC4)[C@H](C4CC4)C3)nc(C3CC3)c2C1` [Compound 497, (R)-7-(2-cyanoacetyl)-3-(4-(cyclopropanecarbonyl)-3-cyclopropylpiperazin-1-yl)-1-cyclopropyl-5,6,7,8-tetrahydro-2,7-naphthyridine-4-carbonitrile] it was 1000 to 10000 nM; in that of `C#CC(=O)N1CCc2c(C#N)c(N3CCN(C(=O)CCO)[C@H](C4CC4)C3)nc(C3CC3)c2C1` [Compound 500, (R)-1-cyclopropyl-3-(3-cyclopropyl-4-(3-hydroxypropanoyl)piperazin-1-yl)-7-propioloyl-5,6,7,8-tetrahydro-2,7-naphthyridine-4-carbonitrile], 500 to 1000 nM. Same read-out and setting: in the case of `C#CC(=O)N1CCc2c(C#N)c(N3CCN(C(=O)C4CC4)[C@H](C4CC4)C3)nc(C3CC3)c2C1` [Compound 491, (R)-3-(4-(cyclopropanecarbonyl)-3-cyclopropylpiperazin-1-yl)-1-cyclopropyl-7-propioloyl-5,6,7,8-tetrahydro-2,7-naphthyridine-4-carbonitrile] it was under 500 nM; in that of `C=C(C)C(=O)N1CCc2c(C#N)c(N3CCN(C(=O)CCOC)[C@H](C4CC4)C3)nc(C3CC3)c2C1` [Compound 502, (R)-1-cyclopropyl-3-(3-cyclopropyl-4-(3-methoxypropanoyl)piperazin-1-yl)-7-methacryloyl-5,6,7,8-tetrahydro-2,7-naphthyridine-4-carbonitrile], 500 to 1000 nM.

Another assay addresses IDH1 R132H (Homo sapiens (Human), UniProt O75874, R132H). The assay can be described thus: Assays for IDH1 R132H Inhibitors (NADPH/aKG, resazurin detection). The class given is biochemical. The settings on record: IDH1 R132H enzyme, Table 2; read-out: IDHR132H Activity. Put shortly:
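Mutant enzyme in 150 mM NaCl, 10 mM MgCl2, 20 mM Tris pH 7.5, 0.03% BSA; compound in DMSO added to substrate mix of 8 uM NADPH and 2 mM aKG. Reaction ran 50 min at room temperature, then resazurin detection mix (30 μM) added for 5 min at room temperature.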
In general terms: Alamar Blue is a resazurin reagent that responds to reducing activity.
As to `N#Cc1c(N2CCN(C(=O)c3ccoc3)CC2)nc(C2CCCCC2)c2c1CCOC2` [Compound 120, 8-cyclohexyl-6-(4-(furan-3-carbonyl)piperazin-1-yl)-3,4-dihydro-1H-pyrano[3,4-c]pyridine-5-carbonitrile], the IC50 was 1000 to 10000 nM. The same measure, in the same setting: in the case of `C[C@@H]1CN(c2nc(C3CCCC3)c3c(c2C#N)CCOC3)C[C@H](C)N1C(=O)c1ccco1` [Compound 126, 8-cyclopentyl-6-((3S,5R)-4-(furan-2-carbonyl)-3,5-dimethylpiperazin-1-yl)-3,4-dihydro-1H-pyrano[3,4-c]pyridine-5-carbonitrile] it was 1000 to 10000 nM. On the same count and under the same terms, then `COC(=O)C1CN(c2nc(C(C)C)c3c(c2C#N)CC(C)(C)OC3)CCN1C(=O)c1ccoc1` (centres unmarked) [Compound 393, methyl 4-(5-cyano-8-isopropyl-3,3-dimethyl-3,4-dihydro-1H-pyrano[3,4-c]pyridin-6-yl)-1-(furan-3-carbonyl)piperazine-2-carboxylate], with 500 to 1000 nM. For `Cc1ncoc1C(=O)N1CCN(c2nc(C(C)C)c3c(c2C#N)CC(C)(C)OC3)C[C@H]1C` [Compound 197, (R)-8-isopropyl-3,3-dimethyl-6-(3-methyl-4-(4-methyloxazole-5-carbonyl)piperazin-1-yl)-3,4-dihydro-1H-pyrano[3,4-c]pyridine-5-carbonitrile], the IC50 lay in the range of 1000 to 10000 nM. Same read-out and setting: in the case of `COc1ccc(NC(=O)N2CCN(c3nc(C4CCCCC4)c4c(c3C#N)CCOC4)C[C@H]2C)cc1` [Compound 299, (R)-4-(5-cyano-8-cyclohexyl-3,4-dihydro-1H-pyrano[3,4-c]pyridin-6-yl)-N-(4-methoxyphenyl)-2-methylpiperazine-1-carboxamide] it was 1000 to 10000 nM. The same measure, in the same setting: then `N#Cc1c(N2CCN(C(=O)c3ccco3)CC2)nc(C2CCCC2)c2c1CCOC2` [Compound 124, 8-cyclopentyl-6-(4-(furan-2-carbonyl)piperazin-1-yl)-3,4-dihydro-1H-pyrano[3,4-c]pyridine-5-carbonitrile], with 1000 to 10000 nM; and `CC(C)[C@@H]1CN(c2nc(C3CC3)c3c(c2C#N)CC(C)(C)OC3)CCN1C(=O)Cn1cccn1` [Compound 325, (R)-6-(4-(2-(1H-pyrazol-1-yl)acetyl)-3-isopropylpiperazin-1-yl)-8-cyclopropyl-3,3-dimethyl-3,4-dihydro-1H-pyrano[3,4-c]pyridine-5-carbonitrile], with 500 to 1000 nM; and `CC(C)[C@@H]1CN(c2nc(C3CC3)c3c(c2C#N)CC(C)(C)OC3)CCN1C(=O)CNC1CC1` [Compound 372, (R)-8-cyclopropyl-6-(4-(2-(cyclopropylamino)acetyl)-3-isopropylpiperazin-1-yl)-3,3-dimethyl-3,4-dihydro-1H-pyrano[3,4-c]pyridine-5-carbonitrile], with 1000 to 10000 nM.

For the compound `CCCOC(=O)N1CCN(c2nc(C3CCCCC3)c3c(c2C#N)CCOC3)C[C@H]1C` [Compound 359, (R)-propyl 4-(5-cyano-8-cyclohexyl-3,4-dihydro-1H-pyrano[3,4-c]pyridin-6-yl)-2-methylpiperazine-1-carboxylate], the IC50 was in the range of 1000 to 10000 nM. On the same count and under the same terms, then `Cc1nc2ccccn2c1C(=O)N1CCN(c2nc(C3CC3)c3c(c2C#N)CC(C)(C)OC3)C[C@H]1C(C)C` [Compound 229], with 1000 to 10000 nM; and `CC(C)[C@@H]1CN(c2nc(C3CCCCC3)c3c(c2C#N)CCOC3)CCN1C(=O)c1ccoc1` [Compound 183, (R)-8-cyclohexyl-6-(4-(furan-3-carbonyl)-3-isopropylpiperazin-1-yl)-3,4-dihydro-1H-pyrano[3,4-c]pyridine-5-carbonitrile], with 1000 to 10000 nM. Same read-out and setting: then `CC(C)c1nc(N2CCN(C(=O)c3ccco3)[C@H](C)C2)c(C#N)c2c1COC(C)(C)C2` [Compound 148, (R)-6-(4-(furan-2-carbonyl)-3-methylpiperazin-1-yl)-8-isopropyl-3,3-dimethyl-3,4-dihydro-1H-pyrano[3,4-c]pyridine-5-carbonitrile], with 1000 to 10000 nM; and `C[C@@H]1CN(c2nc(C3CCCCC3)c3c(c2C#N)CCOC3)CCN1C(=O)c1ccco1` [Compound 162, (R)-8-cyclohexyl-6-(4-(furan-2-carbonyl)-3-methylpiperazin-1-yl)-3,4-dihydro-1H-pyrano[3,4-c]pyridine-5-carbonitrile], with 1000 to 10000 nM; and `CCCNC(=O)N1CCN(c2nc(C3CCCCC3)c3c(c2C#N)CCOC3)C[C@H]1C` [Compound 378, (R)-4-(5-cyano-8-cyclohexyl-3,4-dihydro-1H-pyrano[3,4-c]pyridin-6-yl)-2-methyl-N-propylpiperazine-1-carboxamide], with 1000 to 10000 nM. Same read-out and setting: in the case of `C[C@@H]1CN(c2nc(C3CCCCC3)c3c(c2C#N)CCOC3)CCN1C(=O)Nc1ccc(F)cc1` [Compound 281, (R)-4-(5-cyano-8-cyclohexyl-3,4-dihydro-1H-pyrano[3,4-c]pyridin-6-yl)-N-(4-fluorophenyl)-2-methylpiperazine-1-carboxamide] it was 1000 to 10000 nM. Take `CC(C)[C@@H]1CN(c2nc(C3CC3)c3c(c2C#N)CC(C)(C)OC3)CCN1S(=O)(=O)c1cccs1` [Compound 284, (R)-8-cyclopropyl-6-(3-isopropyl-4-(thiophen-2-ylsulfonyl)piperazin-1-yl)-3,3-dimethyl-3,4-dihydro-1H-pyrano[3,4-c]pyridine-5-carbonitrile]: the IC50 lay in the range of 1000 to 10000 nM. With `CCOC(=O)C1CN(c2nc(C(C)C)c3c(c2C#N)CC(C)(C)OC3)CCN1C(=O)OCCOC` (centres unmarked) [Compound 329, 2-ethyl 1-(2-methoxyethyl) 4-(5-cyano-8-isopropyl-3,3-dimethyl-3,4-dihydro-1H-pyrano[3,4-c]pyridin-6-yl)piperazine-1,2-dicarboxylate], the IC50 is 1000 to 10000 nM. The same measure, in the same setting: in the case of `CC(C)c1nc(N2CCN(C(=O)c3ccc(Cl)c(Cl)c3)CC2)c(C#N)c2c1COCC2` [Compound 105, 6-(4-(3,4-dichlorobenzoyl)piperazin-1-yl)-8-isopropyl-3,4-dihydro-1H-pyrano[3,4-c]pyridine-5-carbonitrile] it was 1000 to 10000 nM; in that of `C[C@@H]1CN(c2nc(C3CCCCC3)c3c(c2C#N)CCOC3)C[C@H](C)N1C(=O)c1ccco1` [Compound 128, 8-cyclohexyl-6-((3S,5R)-4-(furan-2-carbonyl)-3,5-dimethylpiperazin-1-yl)-3,4-dihydro-1H-pyrano[3,4-c]pyridine-5-carbonitrile], 1000 to 10000 nM.

Staying with this assay, now noted: IDH1 R132H enzyme, Table 3; read-out: R132H IC50.
With `C#CC(=O)N1CCc2c(C#N)c(-c3ccc(C(=O)OC)cc3F)nc(C3CC3)c2C1` [Compound 495], the IC50 fell in the range of 500 to 1000 nM. Same read-out and setting: then `N#CCC(=O)N1CCc2c(C#N)c(N3CCN(C(=O)C4CC4)[C@H](C4CC4)C3)nc(C3CC3)c2C1` [Compound 497, (R)-7-(2-cyanoacetyl)-3-(4-(cyclopropanecarbonyl)-3-cyclopropylpiperazin-1-yl)-1-cyclopropyl-5,6,7,8-tetrahydro-2,7-naphthyridine-4-carbonitrile], with 500 to 1000 nM; and `C#CC(=O)N1CCc2c(C#N)c(N3CCN(C(=O)CCO)[C@H](C4CC4)C3)nc(C3CC3)c2C1` [Compound 500, (R)-1-cyclopropyl-3-(3-cyclopropyl-4-(3-hydroxypropanoyl)piperazin-1-yl)-7-propioloyl-5,6,7,8-tetrahydro-2,7-naphthyridine-4-carbonitrile], with 500 to 1000 nM. `C#CC(=O)N1CCc2c(C#N)c(N3CCN(C(=O)C4CC4)[C@H](C4CC4)C3)nc(C3CC3)c2C1` [Compound 491, (R)-3-(4-(cyclopropanecarbonyl)-3-cyclopropylpiperazin-1-yl)-1-cyclopropyl-7-propioloyl-5,6,7,8-tetrahydro-2,7-naphthyridine-4-carbonitrile]: the IC50 was under 500 nM. On the same count and under the same terms, in the case of `C=C(C)C(=O)N1CCc2c(C#N)c(N3CCN(C(=O)CCOC)[C@H](C4CC4)C3)nc(C3CC3)c2C1` [Compound 502, (R)-1-cyclopropyl-3-(3-cyclopropyl-4-(3-methoxypropanoyl)piperazin-1-yl)-7-methacryloyl-5,6,7,8-tetrahydro-2,7-naphthyridine-4-carbonitrile] it was 500 to 1000 nM; in that of `C=CS(=O)(=O)N1CCc2c(C#N)c(N3CCN(C)CC3)nc(C3CC3)c2C1` [Compound 503], 500 to 1000 nM; in that of `CC1CCN(c2nc(C3CC3)c3c(c2C#N)CC(C)(C)OC3)CCN1C(=O)C1CC1` (centres unmarked) [Compound 475, 6-(4-(cyclopropanecarbonyl)-5-methyl-1,4-diazepan-1-yl)-8-cyclopropyl-3,3-dimethyl-3,4-dihydro-1H-pyrano[3,4-c]pyridine-5-carbonitrile], 500 to 1000 nM. The same measure, in the same setting: in the case of `CC(C)[C@@H]1CN(c2nc(C3CC3)c3c(c2C#N)CC(C)(C)OC3)CCN1C(=O)C[S+](C)[O-]` (stereo partly drawn) [Compound 453, 8-Cyclopropyl-6-((3R)-3-isopropyl-4-(2-(methylsulfinyl)acetyl)piperazin-1-yl)-3,3-dimethyl-3,4-dihydro-1H-pyrano[3,4-c]pyridine-5-carbonitrile] it was 500 to 1000 nM.
